“And” between values parts separate entries of the source, which are not always exact repeats. Equal entries are not always repeated. Inconclusive results and toxic doses are left out.
System: CD2F1 mice, L1210 leukemia ip, survival T/C
Experiment: NCI In Vivo Anticancer Drug Screen. Data for tumor model L1210 Leukemia (intraperitoneal) in CD2F1 (CDF1) mice
Conditions: higher = longer survival
How it was run: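 Transplantable tumor in mice; compound-treated vs vehicle-treated groups. Read-out = treated/control ratio of the measured endpoint.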

[1] = endpoint: mean survival time, dose: 100.0 mg/kg/injection, schedule: Q01DX009 (ip), vehicle: Klucel (hydroxypropylcellulose) (HPC)
[2] = endpoint: mean survival time, dose: 100.0 mg/kg/injection, schedule: Q04DX002 (ip), vehicle: saline with Tween-80
[3] = endpoint: mean survival time, dose: 200.0 mg/kg/injection, schedule: Q04DX002 (ip), vehicle: saline with Tween-80
[4] = endpoint: mean survival time, dose: 100.0 mg/kg/injection, schedule: Q04DX003 (ip), vehicle: saline with Tween-80
[5] = endpoint: mean survival time, dose: 200.0 mg/kg/injection, schedule: Q04DX003 (ip), vehicle: saline with Tween-80
[6] = endpoint: mean survival time, dose: 400.0 mg/kg/injection, schedule: Q04DX003 (ip), vehicle: saline with Tween-80
[7] = endpoint: mean survival time, dose: 100.0 mg/kg/injection, schedule: Q01DX001 (ip), vehicle: saline with Tween-80
[8] = endpoint: mean survival time, dose: 200.0 mg/kg/injection, schedule: Q01DX001 (ip), vehicle: saline with Tween-80
[9] = endpoint: mean survival time, dose: 400.0 mg/kg/injection, schedule: Q01DX001 (ip), vehicle: saline with Tween-80
[10] = endpoint: mean survival time, dose: 100.0 mg/kg/injection, schedule: Q01DX009 (ip), vehicle: saline with Tween-80
[11] = endpoint: mean survival time, dose: 200.0 mg/kg/injection, schedule: Q01DX009 (ip), vehicle: saline with Tween-80
[12] = endpoint: mean survival time, dose: 400.0 mg/kg/injection, schedule: Q01DX009 (ip), vehicle: saline with Tween-80
[13] = endpoint: mean survival time, dose: 12.5 mg/kg/injection, schedule: Q01DX009 (ip), vehicle: saline
[14] = endpoint: mean survival time, dose: 25.0 mg/kg/injection, schedule: Q01DX009 (ip), vehicle: saline
[15] = endpoint: mean survival time, dose: 50.0 mg/kg/injection, schedule: Q01DX009 (ip), vehicle: saline
[16] = endpoint: mean survival time, dose: 100.0 mg/kg/injection, schedule: Q01DX009 (ip), vehicle: saline
[17] = endpoint: mean survival time, dose: 400.0 mg/kg/injection, schedule: Q04DX002 (ip), vehicle: saline with Tween-80

NNC(=O)CNc1cccc(Br)c1
T/C (endpoint: mean survival time, dose: 12.5 mg/kg/injection, schedule: Q01DX009 (ip), vehicle: Klucel (hydroxypropylcellulose) (HPC)): 98 % of control
T/C (endpoint: mean survival time, dose: 25.0 mg/kg/injection, schedule: Q01DX009 (ip), vehicle: Klucel (hydroxypropylcellulose) (HPC)): 101 % of control
T/C (endpoint: mean survival time, dose: 50.0 mg/kg/injection, schedule: Q01DX009 (ip), vehicle: Klucel (hydroxypropylcellulose) (HPC)): 101 % of control
T/C (endpoint: mean survival time, dose: 50.0 mg/kg/injection, schedule: Q04DX003 (ip), vehicle: Klucel (hydroxypropylcellulose) (HPC)): 101 % of control
T/C (endpoint: mean survival time, dose: 100.0 mg/kg/injection, schedule: Q01DX001 (ip), vehicle: Klucel (hydroxypropylcellulose) (HPC)): 102 % of control
T/C [1]: 97 % of control
T/C (endpoint: mean survival time, dose: 100.0 mg/kg/injection, schedule: Q04DX003 (ip), vehicle: Klucel (hydroxypropylcellulose) (HPC)): 98 % of control
T/C (endpoint: mean survival time, dose: 200.0 mg/kg/injection, schedule: Q01DX001 (ip), vehicle: Klucel (hydroxypropylcellulose) (HPC)): 98 % of control
T/C (endpoint: mean survival time, dose: 200.0 mg/kg/injection, schedule: Q04DX003 (ip), vehicle: Klucel (hydroxypropylcellulose) (HPC)): 111 % of control

COc1ccc2c(ccc3cc(OC)ccc32)c1
T/C (endpoint: mean survival time, dose: 50.0 mg/kg/injection, schedule: Q04DX002 (ip), vehicle: saline with Tween-80): 93 % of control
T/C [2]: 100 % of control
T/C [3]: 93 % of control

O=C1c2cccc3cccc(c23)C(=O)N1Cc1ccccc1
T/C [4]: 98 % of control
T/C [5]: 87 % of control
T/C [6]: 91 % of control

C1CCC2(CCC34CCCCC3CCCC4)CCCCC2C1 (configuration not stated)
T/C [4]: 101 % of control
T/C [5]: 102 % of control
T/C [6]: 102 % of control

COC(=O)c1ccc(O)c([N+](=O)[O-])c1
T/C [4]: 104 % of control
T/C [5]: 93 % of control

CCC(=O)OCCNc1cc(C(N)=O)c([N+](=O)[O-])cc1[N+](=O)[O-]
T/C [7]: 105 % of control
T/C [8]: 92 % of control
T/C [9]: 97 % of control

COc1ccccc1C1=CCCCCC1
T/C [10]: 107 % of control
T/C [11]: 107 % of control

Brc1ccc2[nH]c3c(c2c1)CSc1ccccc1-3
T/C [1]: 104 % of control
T/C (endpoint: mean survival time, dose: 200.0 mg/kg/injection, schedule: Q01DX009 (ip), vehicle: Klucel (hydroxypropylcellulose) (HPC)): 108 % of control
T/C (endpoint: mean survival time, dose: 400.0 mg/kg/injection, schedule: Q01DX009 (ip), vehicle: Klucel (hydroxypropylcellulose) (HPC)): 112 % of control

CN(c1ccccc1)c1ccc(N=Nc2nc3ccccc3s2)cc1
T/C [7]: 95 % of control
T/C [8]: 98 % of control
T/C [9]: 87 % of control

COC(=O)C1(F)C(=O)NC(=O)NC1OC (configuration not stated)
T/C (endpoint: median survival time, dose: 50.0 mg/kg/injection, schedule: Q01DX005 (ip), vehicle: Klucel (hydroxypropylcellulose) (HPC)): 124 % of control
T/C (endpoint: median survival time, dose: 50.0 mg/kg/injection, schedule: Q01DX005 (ip), vehicle: saline with Tween-80): 124 % of control
T/C (endpoint: median survival time, dose: 50.0 mg/kg/injection, schedule: Q01DX009 (ip), vehicle: Klucel (hydroxypropylcellulose) (HPC)): 121 % of control
T/C (endpoint: median survival time, dose: 72.0 mg/kg/injection, schedule: Q01DX009 (ip), vehicle: Klucel (hydroxypropylcellulose) (HPC)): 153 % of control
T/C (endpoint: median survival time, dose: 100.0 mg/kg/injection, schedule: Q01DX005 (ip), vehicle: saline with Tween-80): 156 % of control
T/C (endpoint: median survival time, dose: 100.0 mg/kg/injection, schedule: Q01DX009 (ip), vehicle: Klucel (hydroxypropylcellulose) (HPC)): 158 % of control and 176 % of control
T/C (endpoint: median survival time, dose: 120.0 mg/kg/injection, schedule: Q01DX009 (ip), vehicle: Klucel (hydroxypropylcellulose) (HPC)): 172 % of control
T/C (endpoint: median survival time, dose: 200.0 mg/kg/injection, schedule: Q01DX005 (ip), vehicle: Klucel (hydroxypropylcellulose) (HPC)): 183 % of control
T/C (endpoint: median survival time, dose: 200.0 mg/kg/injection, schedule: Q01DX005 (ip), vehicle: saline with Tween-80): 178 % of control
T/C (endpoint: median survival time, dose: 200.0 mg/kg/injection, schedule: Q01DX009 (ip), vehicle: Klucel (hydroxypropylcellulose) (HPC)): 159 % of control and 197 % of control and 238 % of control
T/C (endpoint: median survival time, dose: 400.0 mg/kg/injection, schedule: Q01DX005 (ip), vehicle: Klucel (hydroxypropylcellulose) (HPC)): 185 % of control
T/C (endpoint: median survival time, dose: 400.0 mg/kg/injection, schedule: Q01DX005 (ip), vehicle: saline with Tween-80): 112 % of control
T/C (endpoint: median survival time, dose: 800.0 mg/kg/injection, schedule: Q01DX005 (ip), vehicle: Klucel (hydroxypropylcellulose) (HPC)): 104 % of control
T/C (endpoint: median survival time, dose: 800.0 mg/kg/injection, schedule: Q01DX005 (ip), vehicle: saline with Tween-80): 109 % of control
T/C (endpoint: median survival time, dose: 800.0 mg/kg/injection, schedule: Q01DX009 (ip), vehicle: Klucel (hydroxypropylcellulose) (HPC)): 108 % of control

NNC(=O)c1cccc[n+]1[O-]
T/C (endpoint: mean survival time, dose: 12.5 mg/kg/injection, schedule: Q01DX001 (ip), vehicle: water): 98 % of control
T/C (endpoint: mean survival time, dose: 25.0 mg/kg/injection, schedule: Q01DX001 (ip), vehicle: water): 96 % of control
T/C (endpoint: mean survival time, dose: 50.0 mg/kg/injection, schedule: Q01DX001 (ip), vehicle: water): 93 % of control
T/C (endpoint: mean survival time, dose: 100.0 mg/kg/injection, schedule: Q01DX001 (ip), vehicle: water): 102 % of control

Cc1c[nH]c(=O)c[n+]1[O-]
T/C [10]: 100 % of control
T/C [11]: 100 % of control
T/C [12]: 97 % of control

CCCCCCCCC(Sc1n[nH]c(=O)[nH]c1=O)C(=O)OCC (configuration not stated)
T/C (endpoint: mean survival time, dose: 12.5 mg/kg/injection, schedule: Q01DX005 (ip), vehicle: distilled water + Tween-80): 101 % of control
T/C (endpoint: mean survival time, dose: 25.0 mg/kg/injection, schedule: Q01DX005 (ip), vehicle: distilled water + Tween-80): 95 % of control
T/C (endpoint: mean survival time, dose: 50.0 mg/kg/injection, schedule: Q01DX005 (ip), vehicle: distilled water + Tween-80): 95 % of control
T/C (endpoint: mean survival time, dose: 100.0 mg/kg/injection, schedule: Q01DX005 (ip), vehicle: distilled water + Tween-80): 100 % of control
T/C (endpoint: mean survival time, dose: 200.0 mg/kg/injection, schedule: Q01DX005 (ip), vehicle: distilled water + Tween-80): 95 % of control

Oc1ccccc1C=NCCC[N-]CCCN=Cc1ccccc1O.[Co]
T/C (endpoint: mean survival time, dose: 6.25 mg/kg/injection, schedule: Q01DX009 (ip), vehicle: saline): 102 % of control and 103 % of control
T/C [13]: 100 % of control and 103 % of control
T/C [14]: 110 % of control and 111 % of control
T/C [15]: 113 % of control and 100 % of control
T/C [16]: 104 % of control

CC1(C)C/C(=C\c2ccccc2)C(=O)c2ccccc21
T/C (endpoint: mean survival time, dose: 100.0 mg/kg/injection, schedule: Q01DX009 (ip), vehicle: other): 104 % of control
T/C (endpoint: mean survival time, dose: 200.0 mg/kg/injection, schedule: Q01DX009 (ip), vehicle: other): 112 % of control
T/C (endpoint: mean survival time, dose: 400.0 mg/kg/injection, schedule: Q01DX009 (ip), vehicle: other): 96 % of control

COC(=O)c1cc(Br)c(I)c([N+](=O)[O-])c1
T/C [10]: 102 % of control
T/C [4]: 95 % of control
T/C [11]: 108 % of control
T/C [5]: 106 % of control
T/C [12]: 105 % of control
T/C [6]: 97 % of control

O=C(Nc1cccc(Cl)c1)C(c1ccccc1)c1ccccc1
T/C [2]: 95 % of control
T/C [3]: 87 % of control
T/C [17]: 91 % of control

O=C1CN(CN2CCOCC2)C(=O)CN1CN1CCOCC1
T/C [13]: 98 % of control and 101 % of control
T/C [14]: 96 % of control and 98 % of control
T/C [15]: 90 % of control and 102 % of control
T/C [16]: 102 % of control and 108 % of control
T/C (endpoint: mean survival time, dose: 200.0 mg/kg/injection, schedule: Q01DX009 (ip), vehicle: saline): 106 % of control and 111 % of control
T/C (endpoint: mean survival time, dose: 400.0 mg/kg/injection, schedule: Q01DX009 (ip), vehicle: saline): 93 % of control and 107 % of control

Cc1cc2c(C(C)C)c(O)c(O)c(C=NCCO)c2c(O)c1-c1c(C)cc2c(C(C)C)c(O)c(O)c(C=NCCO)c2c1O
T/C (endpoint: median survival time, dose: 25.0 mg/kg/injection, schedule: Q01DX009 (ip), vehicle: saline with Tween-80): 105 % of control
T/C (endpoint: median survival time, dose: 50.0 mg/kg/injection, schedule: Q01DX009 (ip), vehicle: saline with Tween-80): 97 % of control
T/C (endpoint: median survival time, dose: 100.0 mg/kg/injection, schedule: Q01DX009 (ip), vehicle: saline with Tween-80): 101 % of control
T/C (endpoint: median survival time, dose: 200.0 mg/kg/injection, schedule: Q01DX009 (ip), vehicle: saline with Tween-80): 104 % of control
T/C (endpoint: median survival time, dose: 400.0 mg/kg/injection, schedule: Q01DX009 (ip), vehicle: saline with Tween-80): 89 % of control

CC(C)CCCC(C)CO[P+](=O)OCC(C)CCCC(C)C (configuration not stated)
T/C [2]: 103 % of control
T/C [3]: 96 % of control
T/C [17]: 88 % of control

CCOC(=O)c1ccnc2ccc(O)cc12
T/C [10]: 104 % of control
T/C [11]: 93 % of control
T/C [12]: 95 % of control
